Results taken from patent publication US5691366A, “Nitro compounds, process for preparation thereof and use thereof” (Fujisawa Pharmaceutical Co., Ltd., priority 1991, dated 1997).
pIC50: −log10 of the molar value.

Tests used:
[1] = test system: thoracic aorta from male Sprague-Dawley rats; test: Vasodilating activity in vitro (relaxation of norepinephrine-contracted aortic strips); design: species or system rat (male Sprague-Dawley); settings: rat aorta helical strips contracted by 3.2×10^-8 g/ml norepinephrine, 37° C.
Method: The thoracic aorta from male Sprague-Dawley rats, aged 9-11 weeks, were removed and cut into helical strips after removal of excess fat and connective tissues. The strips were mounted vertically in organ baths containing 25 ml Tyrode solution and isometric tension was measured. The tissue bath solution was maintained at 37° C. and bubbled with a 95% O2 and 5% CO2 gas mixture. After the resting tension was adjusted to 0.5 g, the strips were contracted by 3.2×10^-8 g/ml of norepinephrine (NE). The test compound dissolved in ethanol, polyethylene glycol and distilled water (1:1:2) were added to the organ bath cumulatively.
Then, relaxative activity of test compound was expressed as IC50 value i.e. concentration required to inhibit the contraction response by 50%.

[2] = test system: Mean Arterial Blood Pressure in Anesthetized Rats; test: Effect on mean arterial blood pressure in anesthetized rats (intravenous); format: in vivo, rat (male Sprague-Dawley); settings: for Hypotensive effect T 1/2: i.v., time to recover to half of maximal decrease
Method: Male Sprague-Dawley rats, aged 9-12 weeks, were anesthetized with urethane (1.4 g/kg i.p.). A polyethylene cannula filled with heparin solution was inserted into the femoral artery of the rats to measure mean blood pressure. Mean blood pressure was measured with a pressure transducer and recorded on a polygraph. The test compound dissolved in ethanol, polyethylene glycol and distilled water (1:1:2), were administered intraveneously in a volume of 0.25 ml/kg. Intravenous hypothypotensive effects of each compound were expressed as the maximal decrease (R max) and the half time (T 1/2). Briefly, R max was expressed as maximal % change compared to mean blood pressure prior to the administration of compound. T 1/2 was expressed as a time during which the hypotensive effect recovered to half of the maximal decrease.

[3] = test system: Mean Arterial Blood Pressure in Conscious Rats; test: Effect on mean arterial blood pressure in conscious rats (oral); format: in vivo, rat (male Sprague-Dawley); settings: for Hypotensive effect Dur.: time to recover to 5% of maximal decrease; for Hypotensive effect T 1/2: time to recover to half of maximal decrease; for inhibition in vivo at 10 mg/kg / inhibition in vivo at 32 mg/kg: Rattus norvegicus, po, maximal % decrease of mean blood pressure, read-out: Hypotensive effect R max
Method: Male Sprague-Dawley rats, aged 9-11 weeks, were anesthetized with ether and a polyethylene cannula filled with heparin solution was inserted into the femoral artery of the rats to measure mean blood pressure. Mean blood pressure was measured with a pressure transducer and recorded on a polygraph. Two hours after operation, the drug suspended in 0.5% methyl cellulose was administered orally in a volume of 5 ml/kg. Oral hypotensive effects of each compound were expressed as the maximal decrease (R max), the half time (T 1/2) and the duration (Dur.). Briefly, R max was expressed as maximal % change compared to mean blood pressure prior to the administration of compound. T 1/2 was expressed as a time during which the hypotensive effect recovered to half of the maximal decrease. Duration was expressed as a time during which the hypotensive effect recovered to 5% of the maximal decrease.

[4] = Rattus norvegicus, iv, 0.1 mg/kg, maximal % decrease of mean blood pressure, read-out: Hypotensive effect R max
[5] = Rattus norvegicus, iv, 0.32 mg/kg, maximal % decrease of mean blood pressure, read-out: Hypotensive effect R max
[6] = Rattus norvegicus, iv, 0.032 mg/kg, maximal % decrease of mean blood pressure, read-out: Hypotensive effect R max
[7] = Rattus norvegicus, iv, 1.0 mg/kg, maximal % decrease of mean blood pressure, read-out: Hypotensive effect R max

| Structure (SMILES) | inhibition in vivo at 0.32 mg/kg [2, 5] [%] | Hypotensive effect T 1/2 ([2]; 0.32 mg/kg) [min] | Hypotensive effect T 1/2 ([3]; 10 mg/kg) [min] | inhibition in vivo at 10 mg/kg ([3]; 10 mg/kg) [%] | further results |
| --- | --- | --- | --- | --- | --- |
| CCC(=CC(CN1C(=O)c2ccccc2C1=O)=NO)C(C)[N+](=O)[O-] (single isomer, unassigned) [Example 4 B, N-(4-Ethyl-2-hydroxyimino-5-nitro-3-hexen-1-yl)-phthalimide] |  |  |  |  | pIC50 [1]: 5.74 |
| CCC(=CC(CN1C(=O)c2ccccc2C1=O)=NO)C(C)[N+](=O)[O-] (single isomer, unassigned) [Example 4 A, N-(4-Ethyl-2-hydroxyimino-5-nitro-3-hexen-1-yl)-phthalimide] | 40.8 | 5.1 |  |  | pIC50 ([1]; Rattus norvegicus): 5.92; inhibition in vivo at 0.1 mg/kg [2, 4]: 24.6%; Hypotensive effect T 1/2 ([2]; 0.1 mg/kg): 6.7 min |
| CCC(=CC(CNS(=O)(=O)N(C)C)=NO)C(C)[N+](=O)[O-] (single isomer, unassigned) [Example 7 A, N,N-Dimethyl-N'-(4-ethyl-2-hydroxyimino-5-nitro-3-hexen-1-yl)sulfamide] | 42.1 | 5.1 |  |  | pIC50 ([1]; Rattus norvegicus): 4.97; inhibition in vivo at 0.1 mg/kg [2, 4]: 31.7%; Hypotensive effect T 1/2 ([2]; 0.1 mg/kg): 7.6 min |
| CCC(=CC(CNS(=O)(=O)N(C)C)=NO)C(C)[N+](=O)[O-] (single isomer, unassigned) [Example 7 B, N,N-Dimethyl-N'-(4-ethyl-2-hydroxyimino-5-nitro-3-hexen-1-yl)sulfamide] |  |  |  |  | pIC50 [1]: 4.71; Hypotensive effect T 1/2 ([2]; 0.1 mg/kg): 6.6 min |
| CCC(=CC(CNC(C)=O)=NO)C(C)[N+](=O)[O-] (single isomer, unassigned) [Example 5 B, 1-Acetylamino-4-ethyl-2-hydroxyimino-5-nitro-3-hexene] |  |  |  |  | pIC50 [1]: 4.05; inhibition in vivo at 0.1 mg/kg [2, 4]: 34.3%; Hypotensive effect T 1/2 ([2]; 0.1 mg/kg): 6.2 min |
| CCC(=CC(CNC(=O)c1cccnc1Cl)=NO)C(C)[N+](=O)[O-] (stereo not shown) [Example 32, N-(4-Ethyl-2-hydroxyimino-5-nitro-3-hexen-1-yl)-2-chloro-3-pyridinecarboxamide] | 42.5 | 13.6 | 19.6 | 43.2 | Hypotensive effect Dur. ([3]; 10 mg/kg): 50.9 min |
| CCC(=CC(COC(=O)c1cccnc1)=NO)C(C)[N+](=O)[O-] (single isomer, unassigned) [Example 1 B, 4-ethyl-2-hydroxyimino-5-nitro-3-hexen-1-yl 3-pyridinecarboxylate] |  |  |  |  | pIC50 [1]: 5.00; inhibition in vivo at 0.032 mg/kg [2, 6]: 11.8% |
| COCC(C(C)=CC(CNC(=O)c1ccncc1)=NO)[N+](=O)[O-] (stereo not shown) [Example 22, N-(2-Hydroxyimino-6-methoxy-4-methyl-5-nitro-3-hexen-1-yl)-4-pyridinecarboxamide] | 17.7 |  | 29.9 | 19.2 | Hypotensive effect T 1/2 ([3]; 32 mg/kg): 63.2 min; inhibition in vivo at 32 mg/kg ([3]; 32 mg/kg): 25.7%; inhibition in vivo at 1 mg/kg [2, 7]: 35.9%; Hypotensive effect T 1/2 ([2]; 1.0 mg/kg): 24.9 min |
| CCNC(=O)OCC(C=C(CC)C(C)[N+](=O)[O-])=NO (single isomer, unassigned) [Example 3 A, 4-Ethyl-2-hydroxyimino-5-nitro-3-hexen-1-yl ethylcarbamate] |  |  |  |  | pIC50 ([1]; Rattus norvegicus): 4.73; inhibition in vivo at 0.032 mg/kg [2, 6]: 12.6%; inhibition in vivo at 0.1 mg/kg [2, 4]: 29.3%; Hypotensive effect T 1/2 ([2]; 0.032 mg/kg): 4.8 min; Hypotensive effect T 1/2 ([2]; 0.1 mg/kg): 7.2 min |
| CCC(=CC(CNC(=O)c1cccnc1SC)=NO)C(C)[N+](=O)[O-] (single isomer, unassigned) [Example 31 A, N-(4-Ethyl-2-hydroxyimino-5-nitro-3-hexen-1-yl)-2-methylthio-3-pyridinecarboxamide] | 24.3 |  | 10.4 | 14.9 |  |
| CCC(=CC(CNC(C)=O)=NO)C(CC)[N+](=O)[O-] (stereo not shown) [Example 24, 1Acetylamino-4-ethyl-2-hydroxyimino-5-nitro-3-heptene] | 31.8 | 13.6 | 16.6 | 40.7 |  |
| CC(C)C(=CC(CNC(=O)c1cccnc1)=NO)C(C)[N+](=O)[O-] (stereo not shown) [Example 20, N-(2-Hydroxyimino-4-isopropyl-5-nitro-3-hexen-1-yl)-3-pyridinecarboxamide] | 3.8 |  | 28.5 | 20.1 | inhibition in vivo at 3.2 mg/kg ([2]; Rattus norvegicus, iv, 3.2 mg/kg, maximal % decrease of mean blood pressure, read-out: Hypotensive effect R max): 48.4%; Hypotensive effect T 1/2 ([2]; 3.2 mg/kg): 20.1 min |
| CCC(C(C)=CC(CNC(=O)c1cccnc1)=NO)[N+](=O)[O-] (single isomer, unassigned) [Example 18 A, N-(2-hydroxyimino-4-methyl-5-nitro-3-hepten-1-yl)-3-pyridinecarboxamide] | 10.2 |  | 40.1 | 25.7 | Hypotensive effect Dur. ([3]; 10 mg/kg): 57.0 min; Hypotensive effect Dur. ([3]; 32 mg/kg): 156.4 min; Hypotensive effect T 1/2 ([3]; 32 mg/kg): 88.7 min; inhibition in vivo at 32 mg/kg ([3]; 32 mg/kg): 46.9%; inhibition in vivo at 1 mg/kg [2, 7]: 33.6%; Hypotensive effect T 1/2 ([2]; 1.0 mg/kg): 31.5 min |
| CCC(=CC(COC(=O)c1cccnc1)=NO)C(C)[N+](=O)[O-] (single isomer, unassigned) [Example 1 A, 4-ethyl-2-hydroxyimino-5-nitro-3-hexen-1-yl 3-pyridinecarboxylate] | 37 |  |  |  | pIC50 ([1]; Rattus norvegicus): 4.80; inhibition in vivo at 0.1 mg/kg [2, 4]: 21.7% |
| CCC(=CC(CNC(=O)c1cccnc1O)=NO)C(C)[N+](=O)[O-] (single isomer, unassigned) [Example 33 A, N-(4-Ethyl-2-hydroxyimino-5-nitro-3-hexen-1-yl)-2-hydroxy-3-pyridinecarboxamide] | 20.9 | 11.9 | 18.3 | 23.1 |  |
| CCC(=CC(CNC(=O)c1cccnc1)=NO)C(CC)[N+](=O)[O-] (single isomer, unassigned) [Example 25 A, N-(4-Ethyl-2-hydroxyimino-5-nitro-3-hepten-1-yl)-3-pyridinecarboxamide] | 24.1 | 13.1 | 22.5 |  | Hypotensive effect T 1/2 ([3]; 32 mg/kg): 56.7 min; inhibition in vivo at 32 mg/kg ([3]; 32 mg/kg): 26% |
| CCC(=CC(CNC(=O)c1nc[nH]c1C)=NO)C(C)[N+](=O)[O-] (single isomer, unassigned) [Example 45 A, N-(4-Ethyl-2-hydroxyimino-5-nitro-3-hexen-1-yl)-5-methy-4-imidazolecarboxamide] | 31.2 | 11.9 | 26.6 | 35.4 | Hypotensive effect Dur. ([3]; 10 mg/kg): 52.3 min |
| CCC(=CC(CNC(=O)c1cccnc1C)=NO)C(C)[N+](=O)[O-] (single isomer, unassigned) [Example 30 A, N-(4-Ethyl-2-hydroxyimino-5-nitro-3-hexen-1-yl)-2-methyl-3-pyridinecarboxamide] | 37.9 | 16.9 | 36.0 | 40.6 | Hypotensive effect Dur. ([3]; 10 mg/kg): 108.0 min; Hypotensive effect Dur. ([3]; 32 mg/kg): 211.1 min; Hypotensive effect T 1/2 ([3]; 32 mg/kg): 56.2 min; inhibition in vivo at 32 mg/kg ([3]; 32 mg/kg): 39.3% |
| CCC(=CC(CNC(=O)c1ccc(C)nc1)=NO)C(C)[N+](=O)[O-] (stereo not shown) [Example 35, N-(4-Ethyl-2-hydroxyimino-5-nitro-3-hexen-1-yl)-6-methyl-3-pyridinecarboxamide] | 41.7 | 13.7 | 24.1 | 31.1 |  |
